For the test, the system named is UV-B induced tan of the skin. Description: Whitening action: fading of UV-B induced tan on the backs of volunteer panelists, Minolta Chromameter reflectance. The class given is in vivo, human. The note with it: FIG. 5; 1% extract or 2% kojic acid in Example 4 composition; 2 mg/cm^2 once a day; nine panelists. How it is done: A comparative study is done to determine the whitening efficacy of an Exophiala mansonii—derived enzyme extract in comparison to the efficacy of a known tyrosinase inhibitor, kojic acid. More specifically, the study was designed to study the lightening effect of these materials (reduction in tanning) using the fading of UV-B induced tan as a marker. Two samples are prepared. The first sample contains the composition described in Example 4. The second sample has the same composition as that described in Example 4 except that 2% kojic acid is substituted for the 1 % Exophiala mansonii enzyme extract. Nine volunteers participate in the study. […] Tanning is observed for six days after irradiation at which point color measurements are made using a Minolta Chromameter which measures the difference in reflectance of the skin, L. The change in the value of the difference in reflectance, ΔL*, is measured against a baseline skin color value of untreated irradiated skin measured on day 6. […] Chromameter readings are obtained on day 6, 8, 11, 13 and 15. The observed reflectance values for all the time points are recorded, and the area under the curve for each test site was calculated. The Whitening Factor is calculated as the area under the curve of the treated site subtracted from the untreated site, and is shown in FIG. 5.

Take `O=c1cc(CO)occ1O` [kojic acid]: the “Whitening Factor (area under the curve of the treated site subtracted from the untreated site)” value amounted to 1.8.

Source of the values: US20070154444A1, “Extracts from black yeast for whitening skin” (priority 2005, published 2007).
